Test results published in ChEMBL document CHEMBL1201862, “PubChem BioAssay data set” (2004).
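Growth conditions: 96-well plates. Treatment: test compound, 48 hours, 5 concentrations. Analysis: linear interpolation between bracketing concentrations; unreached endpoints set to highest concentration. GI50 is the concentration that inhibits growth by half.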 Activity calls are given as the source filed them. No stated cut-off is given here; in the data, active = GI50 up to about 1.1 µM and inactive = higher.

What was measured:
Experiment in all cases: NCI-60 cell line screen, 48 h
ACHN = test system: ACHN
KM-20L2 = test system: KM-20L2
NCI-H23 = test system: NCI-H23
OVCAR-8 = test system: OVCAR-8
NCI-H226 = test system: NCI-H226
SN12C = test system: SN12C
HCT-116 = test system: HCT-116
SNB-19 = test system: SNB-19
CAKI-1 = test system: CAKI-1
COLO 205 = test system: COLO 205
Malme-3M = test system: Malme-3M
OVCAR-4 = test system: OVCAR-4
KM12 = test system: KM12
TK-10 = test system: TK-10
SK-MEL-2 = test system: SK-MEL-2
HOP-62 = test system: HOP-62
SK-MEL-28 = test system: SK-MEL-28
EKVX = test system: EKVX
DMS-114 = test system: DMS-114
U-251 = test system: U-251
OVCAR-5 = test system: OVCAR-5
LXFL 529 = test system: LXFL 529
DMS-273 = test system: DMS-273
SF-295 = test system: SF-295
M19-MEL = test system: M19-MEL
RXF 393 = test system: RXF 393
HT-29 = test system: HT-29
A549 = test system: A549
LOX IMVI = test system: LOX IMVI
HCC 2998 = test system: HCC 2998
NCI-H460 = test system: NCI-H460
XF498 = test system: XF498
M14 = test system: M14
HL-60 = test system: HL-60
786-0 = test system: 786-0
HOP-92 = test system: HOP-92
SNB-78 = test system: SNB-78
SF-268 = test system: SF-268
SNB-75 = test system: SNB-75
HOP-18 = test system: HOP-18
SW-620 = test system: SW-620
SF-539 = test system: SF-539
UACC-257 = test system: UACC-257
UO-31 = test system: UO-31
NCI-H522 = test system: NCI-H522
UACC-62 = test system: UACC-62
A498 = test system: A498
CCRF-CEM = test system: CCRF-CEM
HCT-15 = test system: HCT-15
SK-MEL-5 = test system: SK-MEL-5
IGROV-1 = test system: IGROV-1
SK-OV-3 = test system: SK-OV-3
K562 = test system: K562
MOLT-4 = test system: MOLT-4
OVCAR-3 = test system: OVCAR-3
RPMI-8226 = test system: RPMI-8226
DLD-1 = test system: DLD-1
SR = test system: SR

CCc1cc(C)cc2[n+]1CC=C2.[O-][Cl+3]([O-])([O-])[O-]
GI50 (ACHN): 10.4 µM (inactive) | GI50 (KM-20L2): 21.5 µM (inactive) | GI50 (NCI-H23): 13.9 µM (inactive) | GI50 (OVCAR-8): 3.97 µM (inactive) | GI50 (NCI-H226): 15.7 µM (inactive) | GI50 (SN12C): 22.2 µM (inactive) | GI50 (HCT-116): 18.2 µM (inactive) | GI50 (SNB-19): 28.6 µM (inactive) | GI50 (CAKI-1): 28.2 µM (inactive) | GI50 (COLO 205): 21.9 µM (inactive) | GI50 (Malme-3M): 15.9 µM (inactive) | GI50 (OVCAR-4): 34.1 µM (inactive) | GI50 (KM12): 32.9 µM (inactive) | GI50 (TK-10): 44.1 µM (inactive) | GI50 (SK-MEL-2): 15.6 µM (inactive) | GI50 (HOP-62): 18.7 µM (inactive) | GI50 (SK-MEL-28): 27.2 µM (inactive) | GI50 (EKVX): 25.4 µM (inactive) | GI50 (DMS-114): 10 µM (inactive) | GI50 (U-251): 39.5 µM (inactive) | GI50 (OVCAR-5): 15.5 µM (inactive) | GI50 (LXFL 529): 4.17 µM (inactive) | GI50 (DMS-273): 0.593 µM (active) | GI50 (SF-295): 31.6 µM (inactive) | GI50 (M19-MEL): 13.8 µM (inactive) | GI50 (RXF 393): > 100 µM (inactive) | GI50 (HT-29): 19.4 µM (inactive) | GI50 (A549): 24.6 µM (inactive) | GI50 (LOX IMVI): 32.7 µM (inactive) | GI50 (HCC 2998): 43.6 µM (inactive) | GI50 (NCI-H460): 27.3 µM (inactive) | GI50 (XF498): 2.56 µM (inactive) | GI50 (M14): 22.3 µM (inactive) | GI50 (HL-60): 0.125 µM (active) | GI50 (786-0): 27.5 µM (inactive) | GI50 (HOP-92): 11.6 µM (inactive) | GI50 (SNB-78): 33.9 µM (inactive) | GI50 (SF-268): 32.5 µM (inactive) | GI50 (SNB-75): 22.9 µM (inactive) | GI50 (HOP-18): 0.0676 µM (active) | GI50 (SW-620): 7.33 µM (inactive) | GI50 (SF-539): 26.7 µM (inactive) | GI50 (UACC-257): 3.55 µM (inactive) | GI50 (UO-31): 16.9 µM (inactive) | GI50 (NCI-H522): 13.1 µM (inactive)

O=C1[C@H]2ON(c3ccccc3)C(c3ccco3)[C@H]2C(=O)N1c1ccc(Cc2ccc(N3C(=O)[C@@H]4ON(c5ccccc5)C(c5ccco5)[C@@H]4C3=O)cc2)cc1 (stereo partly specified)
GI50 (ACHN): > 100 µM (inactive) | GI50 (KM-20L2): > 100 µM (inactive) | GI50 (UACC-62): 85.3 µM (inactive) | GI50 (NCI-H23): > 100 µM (inactive) | GI50 (NCI-H226): > 100 µM (inactive) | GI50 (SN12C): > 100 µM (inactive) | GI50 (A498): > 100 µM (inactive) | GI50 (CCRF-CEM): > 100 µM (inactive) | GI50 (CAKI-1): > 100 µM (inactive) | GI50 (COLO 205): 78.2 µM (inactive) | GI50 (HCT-15): > 100 µM | GI50 (Malme-3M): > 100 µM (inactive) | GI50 (OVCAR-4): > 100 µM (inactive) | GI50 (KM12): > 100 µM (inactive) | GI50 (SK-MEL-5): > 100 µM (inactive) | GI50 (SK-MEL-2): > 100 µM (inactive) | GI50 (HOP-62): > 100 µM (inactive) | GI50 (SK-MEL-28): > 100 µM (inactive) | GI50 (DMS-114): > 100 µM (inactive) | GI50 (U-251): > 100 µM (inactive) | GI50 (OVCAR-5): > 100 µM (inactive) | GI50 (LXFL 529): > 100 µM (inactive) | GI50 (DMS-273): 78.3 µM (inactive) | GI50 (SF-295): > 100 µM (inactive) | GI50 (M19-MEL): > 100 µM (inactive) | GI50 (RXF 393): > 100 µM (inactive) | GI50 (IGROV-1): > 100 µM (inactive) | GI50 (HT-29): > 100 µM (inactive) | GI50 (SK-OV-3): > 100 µM (inactive) | GI50 (K562): > 100 µM (inactive) | GI50 (A549): > 100 µM (inactive) | GI50 (LOX IMVI): > 100 µM (inactive) | GI50 (HCC 2998): > 100 µM (inactive) | GI50 (NCI-H460): > 100 µM (inactive) | GI50 (XF498): 42.7 µM (inactive) | GI50 (M14): 82.2 µM (inactive) | GI50 (HL-60): > 100 µM (inactive) | GI50 (786-0): > 100 µM (inactive) | GI50 (HOP-92): > 100 µM (inactive) | GI50 (MOLT-4): > 100 µM (inactive) | GI50 (OVCAR-3): > 100 µM (inactive) | GI50 (SNB-78): > 100 µM (inactive) | GI50 (SF-268): > 100 µM (inactive) | GI50 (RPMI-8226): > 100 µM (inactive) | GI50 (SNB-75): > 100 µM (inactive) | GI50 (HOP-18): > 100 µM (inactive) | GI50 (SW-620): > 100 µM (inactive) | GI50 (DLD-1): > 100 µM (inactive) | GI50 (SF-539): > 100 µM (inactive) | GI50 (UACC-257): 47.5 µM (inactive) | GI50 (UO-31): > 100 µM (inactive)

COC(=O)C(C(=O)C(=O)Nc1ccc([N+](=O)[O-])cc1)c1nc2cc(C)c(C)cc2nc1O (stereo unspecified)
GI50 (ACHN): > 100 µM (inactive) | GI50 (KM-20L2): > 100 µM (inactive) | GI50 (UACC-62): > 100 µM (inactive) | GI50 (NCI-H23): > 100 µM (inactive) | GI50 (NCI-H226): > 100 µM (inactive) | GI50 (SN12C): > 100 µM (inactive) | GI50 (HCT-116): > 100 µM (inactive) | GI50 (A498): > 100 µM (inactive) | GI50 (CCRF-CEM): > 100 µM (inactive) | GI50 (SNB-19): > 100 µM (inactive) | GI50 (CAKI-1): > 100 µM (inactive) | GI50 (COLO 205): > 100 µM (inactive) | GI50 (HCT-15): > 100 µM | GI50 (Malme-3M): > 100 µM (inactive) | GI50 (OVCAR-4): > 100 µM (inactive) | GI50 (KM12): > 100 µM (inactive) | GI50 (SK-MEL-5): > 100 µM (inactive) | GI50 (TK-10): > 100 µM (inactive) | GI50 (HOP-62): > 100 µM (inactive) | GI50 (SK-MEL-28): > 100 µM (inactive) | GI50 (EKVX): > 100 µM (inactive) | GI50 (DMS-114): > 100 µM (inactive) | GI50 (U-251): > 100 µM (inactive) | GI50 (OVCAR-5): > 100 µM (inactive) | GI50 (LXFL 529): > 100 µM (inactive) | GI50 (SF-295): > 100 µM (inactive) | GI50 (M19-MEL): > 100 µM (inactive) | GI50 (RXF 393): > 100 µM (inactive) | GI50 (SR): > 100 µM (inactive) | GI50 (IGROV-1): > 100 µM (inactive) | GI50 (HT-29): > 100 µM (inactive) | GI50 (SK-OV-3): > 100 µM (inactive) | GI50 (K562): > 100 µM (inactive) | GI50 (A549): > 100 µM (inactive) | GI50 (LOX IMVI): > 100 µM (inactive) | GI50 (HCC 2998): 81.3 µM (inactive) | GI50 (NCI-H460): > 100 µM (inactive) | GI50 (XF498): > 100 µM (inactive) | GI50 (M14): > 100 µM (inactive) | GI50 (HL-60): > 100 µM (inactive) | GI50 (786-0): > 100 µM (inactive) | GI50 (HOP-92): > 100 µM (inactive) | GI50 (MOLT-4): > 100 µM (inactive) | GI50 (OVCAR-3): > 100 µM (inactive) | GI50 (SNB-78): > 100 µM (inactive) | GI50 (SF-268): > 100 µM (inactive) | GI50 (RPMI-8226): > 100 µM (inactive) | GI50 (SNB-75): > 100 µM (inactive) | GI50 (HOP-18): > 100 µM (inactive) | GI50 (SW-620): > 100 µM (inactive) | GI50 (DLD-1): > 100 µM (inactive) | GI50 (SF-539): > 100 µM (inactive) | GI50 (UACC-257): > 100 µM (inactive) | GI50 (UO-31): > 100 µM (inactive) | GI50 (NCI-H522): > 100 µM (inactive)
